# Earlier results as cited in patent US20240100062A1, “Methods of Treatment With an Iboga Alkaloid” (priority 2022, published 2024).
# What was measured:
# [1] = in vivo; cited from earlier work
# [2] = tested on: N-methyl-D-aspartate, kappa and mu opioid, sigma-1 and -2, nicotinic acetylcholine, serotonin transporter, and dopamine transporter; details: cited from earlier work
substance,measurement,setting,value
Noribogaine,half-life,[1],28 to 49 h
same,Affinity for neurotransmitter receptors,[2],moderate-to-weak affinity
